{"source": "patent US20230190857A1", "about": "“PEPTIDE WITH AMIDATED CARBOXY TERMINUS HAVING MELANOGENESIS INHIBITORY ACTIVITY AND COMPOSITION COMPRISING SAME” (RUBY CROWN CO. LTD., priority 2018, published 2023)", "key": {"[1]": {"test_system": "human epidermal melanocyte (HEM)", "assay": "Cell viability, MTT assay, HEMs", "assay_type": "cell-based", "details": "FIG. 6b", "protocol": "(§1) Cell viability was measured by using a 3-(4,5-dimethylthiazol-2-yl)-2,5-diphenyltetrazolium bromide (MTT) assay. B16-F10 cell lines were treated with test peptides at various concentrations for 72 hours. The cells were washed with PBS and cultured in 100 μl of culture fluid, to which 1 mg/mL of MTT (Amresco, Solon, Ohio, USA) was added, for three hours. After that, the culture fluid was removed therefrom and formazan accumulated inside the cells was extracted with 100 μl of dimethyl sulfoxide (DMSO). Absorbance of the extracted solution was measured at 595 nm by using SPECTROstar Nano microplate reader (BMG LABTECH GmbH, Ortenberg, Germany).\n(§2) After the B16-F10 cells and HEM were treated with the peptides of Examples 1 to 4 according to the same method, cell viability was measured and the results thereof were summarized in FIGS. 1b, 2b, 3b, 4b, 5b, 6b and 7a respectively."}, "B16-F10 cells [2]": {"test_system": "B16-F10 cells", "assay": "Melanogenesis inhibitory activity (melanin content) in B16-F10 cells stimulated with α-MSH", "assay_type": "cell-based, murine", "details": "for melanogenesis inhibitory effect of glycine derivatives (melanin content): various concentrations, FIG. 5a; for melanogenesis inhibitory effect of short peptides (melanin content): peptide 30 μM to 100 μM, FIG. 4a", "protocol": "(§3) Cells were cultured in a humidified incubator at 37° C. and 5% CO2. Murine melanoma B16-F10 cell lines were cultured in Dulbecco' Modified Eagle Medium containing 10% fetal bovine serum and antibiotics (100 U/mL of penicillin, 0.1 mg/mL of streptomycin and 0.25 μg/mL of amphotericin B), which were purchased from the American Type Culture Collection (Manassas, Va., USA). A human epidermal melanocyte (HEM), derived from a pigmented human neonatal foreskin, was purchased from Cascade Biologics (Portland, Oreg., USA) and cultured in medium 254 containing human melanocyte growth supplements (Cascade Biologics) and antibiotics.\n(§4) A melanin formation inhibitory effect of the peptide to be analyzed was confirmed by using B16-F10 cell lines and HEM. The B16-F10 cells were treated with test peptides at various concentrations and stimulated for 72 hours by using 100 nM of α-MSH. Hexapeptide B6 (Phe-Ser-His-His-Leu-Gly-NH2) (SEQ ID NO: 20), p-coumaric acid and arbutin were used as a control group. A level of extracellular melanin was measured by using a conditioned medium in which cells were previously cultured. Intracellular melanin was extracted at 60° C. for 60 minutes by using 1.0 M NaOH. A content of melanin was spectroscopically measured by measuring absorbance at 475 nm and resultant values were normalized with regard to a total protein content of cells by using Bio-Rad DC assay."}, "[3]": {"test_system": "human epidermal melanocyte (HEM)", "assay": "Melanogenesis inhibitory activity (intracellular and extracellular melanin) in HEMs stimulated with α-MSH", "assay_type": "cell-based", "details": "FIG. 6a", "protocol": "as §3\nas §4, with “assay. […]” for “assay.”"}, "[4]": {"test_system": "cAMP-responsive element binding protein (CREB)", "assay": "Western blotting, phosphorylation of CREB in B16-F10 cells", "assay_type": "cell-based, murine", "details": "stimulated with α-MSH, FIG. 9a", "protocol": "(§5) Western blotting was performed as described in a document [Study on phenolic compounds and novel peptides inhibiting UVB- and PM10-induced MMP1 expression and melanogenesis in skin cells. PhD Thesis 2017. Kyungpook National University, Korea]. B16-F10 cells were dissolved in 10 mM of cold Tris-HCl buffer solution (pH 7.2) containing 150 mM of NaCl, 5 mM of EDTA, 0.1% sodium dodecyl sulfate (SDS), 1% triton X-100, 1% deoxycholate, 1 mM of phenylmethylsulphonyl fluoride and protease inhibitor cocktail (Roche). A part of cytolysate (30 μg of protein) was mixed with Laemmli sample buffer, then heated at 95° C. for five minutes to be denaturalized, and then was subject to electrophoresis in 10% SDS-polyacrylamide gel. After the electrophoresis, protein was transferred from gel to polyvinylidene difluoride membrane (Amersham Pharmacia, Little Chalfont, UK). Primary antibodies for TYR, TYRP1, DCT, MITF and @-actin were purchased from Santa Cruz Biotechnology (Santa Cruz, Calif., USA). Primary antibodies for CREB, phospho-CREB (Ser133), extracellular signal-regulated kinase (ERK) and phospho-ERK (Thr202/Tyr204) were purchased from Cell Signaling (located in Danvers, Mass., USA). […] A protein band was visualized by using picoEPD Western Reagent kit (Elpis-Biotech, Daejeon, South Korea), and a depth of image was analyzed by using National Institutes of Health ImageJ program. […]"}, "[5]": {"test_system": "extracellular signal-regulated kinase (ERK)", "assay": "Western blotting, phosphorylation of ERK in B16-F10 cells", "assay_type": "cell-based, murine", "details": "stimulated with α-MSH, FIG. 9a", "protocol": "as §5"}, "[6]": {"test_system": "dopachrometautomerase (DCT)", "assay": "Western blotting, DCT protein level in B16-F10 cells", "assay_type": "cell-based, murine", "details": "both in the presence and in the absence of α-MSH, FIG. 8b", "protocol": "(§6) Western blotting was performed as described in a document [Study on phenolic compounds and novel peptides inhibiting UVB- and PM10-induced MMP1 expression and melanogenesis in skin cells. PhD Thesis 2017. Kyungpook National University, Korea]. B16-F10 cells were dissolved in 10 mM of cold Tris-HCl buffer solution (pH 7.2) containing 150 mM of NaCl, 5 mM of EDTA, 0.1% sodium dodecyl sulfate (SDS), 1% triton X-100, 1% deoxycholate, 1 mM of phenylmethylsulphonyl fluoride and protease inhibitor cocktail (Roche). A part of cytolysate (30 μg of protein) was mixed with Laemmli sample buffer, then heated at 95° C. for five minutes to be denaturalized, and then was subject to electrophoresis in 10% SDS-polyacrylamide gel. After the electrophoresis, protein was transferred from gel to polyvinylidene difluoride membrane (Amersham Pharmacia, Little Chalfont, UK). Primary antibodies for TYR, TYRP1, DCT, MITF and @-actin were purchased from Santa Cruz Biotechnology (Santa Cruz, Calif., USA). Primary antibodies for CREB, phospho-CREB (Ser133), extracellular signal-regulated kinase (ERK) and phospho-ERK (Thr202/Tyr204) were purchased from Cell Signaling (located in Danvers, Mass., USA). […] A protein band was visualized by using picoEPD Western Reagent kit (Elpis-Biotech, Daejeon, South Korea), and a depth of image was analyzed by using National Institutes of Health ImageJ program."}, "[7]": {"test_system": "microphthalmia-associated transcription factor (MITF)", "assay": "Western blotting, MITF protein level in B16-F10 cells", "assay_type": "cell-based, murine", "details": "stimulated with α-MSH, FIG. 9b", "protocol": "as §5"}, "tyrosinase (TYR) [8]": {"test_system": "tyrosinase (TYR)", "assay": "Western blotting, TYR protein level in B16-F10 cells", "assay_type": "cell-based, murine", "details": "both in the presence and in the absence of α-MSH, FIG. 8b", "protocol": "as §6"}, "[9]": {"test_system": "tyrosinase-related protein 1 (TYRP1)", "assay": "Western blotting, TYRP1 protein level in B16-F10 cells", "assay_type": "cell-based, murine", "details": "both in the presence and in the absence of α-MSH, FIG. 8b", "protocol": "as §6"}, "B16-F10 cells [10]": {"test_system": "B16-F10 cells", "assay": "Cell viability, MTT assay, B16-F10 cells", "assay_type": "cell-based, murine", "details": "up to 300 μM, FIG. 7a", "protocol": "as §1, §2"}, "tyrosinase (TYR) [11]": {"test_system": "tyrosinase (TYR)", "assay": "TYR activity assay in cell-free extract of treated B16-F10 cells", "assay_type": "cell-based, murine", "details": "treated 60 minutes, then 100 nM α-MSH 24 hours, FIG. 8a", "protocol": "B16-F10 cells were treated with glycinamide-HCl for 60 minutes and stimulated for 24 hours by using 100 nM of α-MSH. The cells were dissolved in 10 mM of cold Tris-HCl buffer solution (pH 7.4) containing 120 mM of sodium chloride, 25 mM of potassium chloride, 2.0 mM of ethylene glycol tetraacetic acid, 1.0 mM of ethylenediaminetetraacetic acid, 0.5% triton X-100, protease inhibitor cocktail (Roche, Mannheim, Germany). Cytolysate was centrifuged at 13,000×g at 4° C. for 15 minutes to obtain a cell-free extract therefrom. TYR activity was measured by using L-tyrosine and L-3,4-dihydroxyphenylalanine. A reaction mixture (200 μL) includes 100 mM of sodium phosphate (pH 6.8), 1.0 mM of L-tyrosine, 42 μM of L-3,4-dihydroxy phenylalanine and a cell-free extract (40 μg of protein), which was cultured at 37° C. A change in absorbance was measured at 475 nm by using Spectrostar Nano microplate reader."}}, "note": "“Also recorded” adds a separate entry of the source. Ends that are not written are not given here. Peptide text beside a SMILES is read from it."}
{"compound": "N=C(N)NCCC[C@H](N)C(=O)N[C@@H](Cc1ccccc1)C(=O)N[C@@H](Cc1c[nH]c2ccccc12)C(=O)NCC(N)=O", "note": "[D3, Arg-Phe-Trp-Gly-NH2] (H-RFWG-NH2)", "values": [{"measurement": "HEMs cell viability / cytotoxicity", "setting": "[1]", "value": "almost no cytotoxicity"}]}
{"compound": "CC(C)C[C@H](NC(=O)[C@@H](N)CCCNC(=N)N)C(=O)N[C@@H](Cc1c[nH]c2ccccc12)C(=O)NCC(N)=O", "note": "[D5, Arg-Leu-Trp-Gly-NH2] (H-RLWG-NH2)", "values": [{"measurement": "HEMs cell viability / cytotoxicity", "setting": "[1]", "value": "almost no cytotoxicity"}]}
{"compound": "NC(=O)CNC(=O)[C@@H](N)Cc1c[nH]c2ccccc12", "note": "[F1, Trp-Gly-NH2] (H-Trp-Gly-NH2)", "values": [{"measurement": "HEMs cell viability / cytotoxicity", "setting": "[1]", "value": "almost no cytotoxicity"}]}
{"compound": "NCC(N)=O", "note": "[G1, glycinamide]", "values": [{"measurement": "HEMs cell viability / cytotoxicity", "setting": "[1]", "value": "almost no cytotoxicity"}, {"measurement": "melanogenesis inhibitory effect of glycine derivatives (melanin content)", "setting": "B16-F10 cells [2]; 100 nM α-MSH, 72 hours", "value": "maintains anti-melanogenesis activity"}, {"measurement": "increase in content of intracellular and extracellular melanins in HEMs", "setting": "[3]", "value": "weakened"}]}
{"compound": "NCC(=O)O", "note": "[free glycine, glycine, reference compound]", "values": [{"measurement": "melanogenesis inhibitory effect of glycine derivatives (melanin content)", "setting": "B16-F10 cells [2]; 100 nM α-MSH, 72 hours", "value": "no activity"}]}
{"compound": "Cl.NCC(N)=O", "note": "[glycinamide-HCl]", "values": [{"measurement": "phosphorylation of CREB", "setting": "[4]", "value": "inhibited"}, {"measurement": "phosphorylation of ERK", "setting": "[5]", "value": "did not affect"}, {"measurement": "protein level of DCT", "setting": "[6]", "value": "significantly reduced"}, {"measurement": "level of MITF expression increased by α-MSH", "setting": "[7]", "value": "weakened"}, {"measurement": "level of intracellular and extracellular melanins", "setting": "B16-F10 cells [2]; 25-100 μM, cells stimulated with α-MSH, FIG. 7b", "value": "reduced"}, {"measurement": "protein level of TYR", "setting": "tyrosinase (TYR) [8]", "value": "significantly reduced"}, {"measurement": "protein level of TYRP1", "setting": "[9]", "value": "significantly reduced"}, {"measurement": "cytotoxicity in B16-F10 cells", "setting": "B16-F10 cells [10]", "value": "did not cause any cytotoxicity"}, {"measurement": "TYR activity increased by α-MSH", "setting": "tyrosinase (TYR) [11]", "value": "significantly weakened"}]}
{"compound": "Arg-Trp-Gly-NH2 [E7]", "values": [{"measurement": "melanogenesis inhibitory effect of short peptides (melanin content)", "setting": "B16-F10 cells [2]; 100 nM α-MSH, 72 hours", "value": "melanogenesis inhibitory activity higher than that of other tripeptides"}]}
{"compound": "Leu-Trp-Gly-NH2 [E6]", "values": [{"measurement": "melanogenesis inhibitory effect of short peptides (melanin content)", "setting": "B16-F10 cells [2]; 100 nM α-MSH, 72 hours", "value": "melanogenesis inhibitory activity higher than that of other tripeptides"}]}
{"compound": "Phe-Arg-Trp-Gly (FRWG-NH2) [D9]", "values": [{"measurement": "melanogenesis inhibitory activity compared with p-coumaric acid and arbutin", "setting": "B16-F10 cells [2]; peptide 10-30 μM, 100 nM α-MSH, 72 hours, molar comparison, FIG. 3a", "value": "melanogenesis inhibitory activity at a concentration lower than that of p-coumaric acid and arbutin; also recorded: the most powerful melanogenesis inhibitory effect"}]}
{"compound": "Phe-Ser-His-His-Leu-Gly-NH2 (FSHHLG-NH2) [Hexa-peptide B6, reference compound]", "values": [{"measurement": "melanogenesis inhibitory effect of individual tetrapeptides (melanin content)", "setting": "B16-F10 cells [2]; peptide 30 μM and 100 μM, 100 nM α-MSH, 72 hours, FIG. 2a", "value": "showed a melanogenesis inhibitory effect at 100 μM only"}]}
{"compound": "Phe-Trp-Gly-NH2 [E5]", "values": [{"measurement": "melanogenesis inhibitory effect of short peptides (melanin content)", "setting": "B16-F10 cells [2]; 100 nM α-MSH, 72 hours", "value": "melanogenesis inhibitory activity higher than that of other tripeptides"}, {"measurement": "increase in content of intracellular and extracellular melanins in HEMs", "setting": "[3]", "value": "weakened"}]}
